Data on 47 molecules can be found in patent US9073875B2, “Compounds useful as inhibitors of indoleamine 2,3-dioxygenase” (Vertex Pharmaceuticals Incorporated, priority 2012, dated 2015).

pIC50: −log10 of the molar value.

T1 sequence (P14902 whole entry): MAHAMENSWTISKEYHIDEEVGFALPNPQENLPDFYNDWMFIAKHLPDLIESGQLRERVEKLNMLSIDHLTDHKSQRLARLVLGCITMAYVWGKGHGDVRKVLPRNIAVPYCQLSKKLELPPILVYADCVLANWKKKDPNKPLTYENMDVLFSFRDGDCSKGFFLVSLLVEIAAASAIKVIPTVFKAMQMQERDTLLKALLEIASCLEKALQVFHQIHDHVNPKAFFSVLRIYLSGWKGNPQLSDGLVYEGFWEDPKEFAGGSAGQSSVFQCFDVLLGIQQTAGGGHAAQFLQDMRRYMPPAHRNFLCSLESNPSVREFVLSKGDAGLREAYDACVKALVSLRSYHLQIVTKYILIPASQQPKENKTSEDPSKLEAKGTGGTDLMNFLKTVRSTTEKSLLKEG

This experiment has as its target T1, IDO1 (Homo sapiens, UniProt P14902).
T1 construct: HeLa cells in which IDO1 expression is induced by IFN-γ; endogenous in cells; host or cells: HeLa cells stimulated with human recombinant IFN-γ
In words: Cellular IDO1 Inhibition Assay (L-kynurenine production by IFN-γ-stimulated HeLa cells). The class given is cell-based. The conditions noted are these: IDO1 induced by IFN-γ, 250 μM L-tryptophan, 48 hours, L-kynurenine by Ehrlich's reagent, maximal concentration 40 μM. Here is the method:
Compounds can be screened for their ability to inhibit intracellular IDO1 activity, by measuring the production of L-kynurenine by HeLa cells in which IDO1 expression is induced by IFN-γ. Kynurenine levels can be determined by chemical conversion of L-kynurenine with Ehrlich's reagent (Yue et. al., J Med Chem 2009 Dec. 10; 52(23):7364-7).
HeLa cells were plated at 20,000 cells per well in 96-well culture plates (Costar 3598) in DMEM (Sigma D5671) supplemented with 10% fetal bovine serum (SAFC Biosciences 12003C), Penicillin/Streptomycin solution diluted 1:100 (Sigma P7539), 4 mM L-glutamine (Sigma G7513), 1% Non Essential Aminoacids (Sigma M7145) and 1 mM Sodium Pyruvate (Sigma S8636). Cells were allowed to adhere for 24 hours at 37° C. in 5% CO2. Subsequently compounds were first serially diluted 1/3 in DMSO then further diluted in media and finally added to the cells, giving a maximal final concentration of 40 μM. Additional medium containing L-tryptophan to a final concentration of 250 μM (Sigma T0254) and human recombinant IFN-γ (R&D Systems 285-IF) were added to the wells to stimulate IDO1 production. Cells were incubated at 37° C. in 5% CO2 for 48 hours.
For the measurement of L-kynurenine in HeLa supernatants, plates were centrifuged at 1000 RPM for 5 minutes and 140 μl of media transferred into a polypropylene 96 well plate (Costar 3879) containing 10 μl of 26% Trichloroacetic Acid in water (Sigma T9159). Plates were then sealed using a plate sealer (PlateLoc, Agilent Technology) and incubated at 50° C. for 30 minutes. Plates were centrifuged at 2400 RPM for 10 minutes and 100 μl of media transferred to polystyrene 96-well plates together with 100 μl of Ehrlich's reagent (2% p-Dimethylaminobenzaldehyde, (Sigma D2004) in acetic acid (Fisher, A/400/PB17)). Following the addition of Ehrlich's reagent the absorbance at 490 nm was read using a spectrophotometer (Spectramax Plus, Molecular Devices). Kynurenine levels were plotted against compound concentrations to generate dose response curves and obtain […] values for each active compound using Genedata Screener® Software.
Cellular […] values for each compound may be found in Table 2, below, wherein A=<0.1 μM; B=0.1 μM-1 μM; and C=1 μM-40 μM.
What is called pIC50 is −log10 of the IC50, conventionally taken in molar units. Lower therefore signals a large IC50. Turning to `Clc1ccc(Nc2c[nH]nn2)c(OCCN2CCOCC2)c1` [Compound I-10], the pIC50 was 6.00 to 7.00. In turn, `CC(C)(C)C(Cc1cc(Cl)ccc1Nc1cn[nH]n1)C(=O)O` (centres unmarked) [Compound I-35] gave a pIC50 of 4.40 to 6.00. As for `N#Cc1cc(Nc2cn[nH]n2)ccc1Cl` [Compound I-44, 5-((2H-1,2,3-triazol-4-yl)amino)-2-chlorobenzonitrile], the pIC50 was 6.00 to 7.00. In turn, `CN(C)S(=O)(=O)CCc1cc(Cl)ccc1Nc1cnn[nH]1` [Compound I-43] showed a pIC50 of 6.00 to 7.00.

As for `COCc1cc(Cl)ccc1Nc1cnn[nH]1` [Compound I-4], the pIC50 was over 7.00.

The molecule `O=C(O)C1CC(Cc2cc(Cl)ccc2Nc2cn[nH]n2)C1` (centres unmarked) [Compound I-28, 3-(2-((2H-1,2,3-triazol-4-yl)amino)-5-chlorobenzyl)cyclobutanecarboxylic acid] showed a pIC50 of 4.40 to 6.00.

As to `Clc1ccc(Nc2cn[nH]n2)c(I)c1` [Compound I-25], the pIC50 is 4.40 to 6.00. To `COCCc1cc(Cl)ccc1Nc1cn[nH]n1` [Compound I-6] belongs over 7.00; to `CN(Cc1cc(Cl)ccc1Nc1c[nH]nn1)C(=O)OC(C)(C)C` [Compound I-23], 4.40 to 6.00; to `Cc1cc(Cl)cc(Nc2cnn[nH]2)c1` [Compound I-41], 6.00 to 7.00. With `Clc1ccc(Nc2cn[nH]n2)cc1` [Compound I-2], the pIC50 was over 7.00. To `COc1cc(Nc2cn[nH]n2)ccc1Cl` [Compound I-8] belongs 6.00 to 7.00; to `Fc1cccc(Nc2cnn[nH]2)c1` [Compound I-45, N-(3-fluorophenyl)-2H-1,2,3-triazol-4-amine], 6.00 to 7.00. To `COc1cc(Cl)ccc1Nc1cn[nH]n1` [Compound I-12] belongs 6.00 to 7.00; to `Fc1cc(Cl)ccc1Nc1cnn[nH]1` [Compound I-30], 4.40 to 6.00; to `CC(C)(Cc1cc(Cl)ccc1Nc1cn[nH]n1)C(=O)O` [Compound I-33, 3-(2-((2H-1,2,3-triazol-4-yl)amino)-5-chlorophenyl)-2,2-dimethylpropanoic acid], 4.40 to 6.00.

Turning to `Cc1ccc(Cl)cc1Nc1cnn[nH]1` [Compound I-42], the pIC50 was over 7.00. `Clc1ccc(Nc2cnn[nH]2)c(Cl)c1` [Compound I-27]: the pIC50 is 4.40 to 6.00. `O=C(O)CCc1cc(Cl)ccc1Nc1cn[nH]n1` [Compound I-31] had a negative-log IC50 (pIC50) of 4.40 to 6.00.

Turning to `Fc1cc(Nc2c[nH]nn2)ccc1Cl` [Compound I-14], the pIC50 is 6.00 to 7.00. The same measure for `NCc1cc(Cl)ccc1Nc1cnn[nH]1` [Compound I-34, N-(2-(aminomethyl)-4-chlorophenyl)-2H-1,2,3-triazol-4-amine]: 4.40 to 6.00. To `Clc1ccc(Nc2cnn[nH]2)c(CCCN2CCOCC2)c1` [Compound I-47] belongs 6.00 to 7.00; to `Brc1cccc(Nc2cn[nH]n2)c1` [Compound I-37], 6.00 to 7.00; to `Clc1ccc(Nc2cnn[nH]2)c(CCN2CCOCC2)c1` [Compound I-46], 6.00 to 7.00.

For `Clc1ccccc1Nc1cnn[nH]1` [Compound I-29], the pIC50 was 4.40 to 6.00. The same measure for `CC(=O)NCc1cc(Cl)ccc1Nc1cnn[nH]1` [Compound I-20, N-(2-((2H-1,2,3-triazol-4-yl)amino)-5-chlorobenzyl)acetamide]: 6.00 to 7.00; for `CCc1cc(Cl)ccc1Nc1cnn[nH]1` [Compound I-1]: over 7.00; for `Cc1cc(Cl)cc(C)c1Nc1cnn[nH]1` [Compound I-15]: 6.00 to 7.00. The same measure for `CNS(=O)(=O)CCc1cc(Cl)ccc1Nc1cnn[nH]1` [Compound I-17]: 6.00 to 7.00; for `OCc1cc(Cl)ccc1Nc1cnn[nH]1` [Compound I-9, (2-((2H-1,2,3-triazol-4-yl)amino)-5-chlorophenyl)methanol]: 6.00 to 7.00; for `Clc1ccc(Nc2cnn[nH]2)cc1Cl` [Compound I-19]: 6.00 to 7.00. The same measure for `Fc1ccc(Nc2cnn[nH]2)cc1` [Compound I-24]: 6.00 to 7.00. `Cc1c(Cl)cccc1Nc1cnn[nH]1` [Compound I-39]: the pIC50 is 6.00 to 7.00. To `Clc1cccc(Nc2cnn[nH]2)c1` [Compound I-11] belongs 6.00 to 7.00; to `Cc1cc(Cl)ccc1Nc1c[nH]nn1` [Compound I-5], over 7.00; to `Fc1ccc(Nc2cnn[nH]2)cc1Cl` [Compound I-13, N-(3-chloro-4-fluorophenyl)-2H-1,2,3-triazol-4-amine], 6.00 to 7.00. In the case of `C=Cc1cc(Cl)ccc1Nc1cnn[nH]1` [Compound I-40], the pIC50 is over 7.00.

Regarding `CS(=O)(=O)NCc1cc(Cl)ccc1Nc1cnn[nH]1` [Compound I-21], the negative logarithm of the IC50 (pIC50) was 4.40 to 6.00. To `Fc1ccc(Nc2cnn[nH]2)cc1Br` [Compound I-18] belongs 6.00 to 7.00; to `Cc1cc(F)ccc1Nc1c[nH]nn1` [Compound I-36, N-(4-fluoro-2-methylphenyl)-2H-1,2,3-triazol-4-amine], over 7.00; to `CC(C)C(Cc1cc(Cl)ccc1Nc1cn[nH]n1)C(=O)O` (centres unmarked) [Compound I-32], 4.40 to 6.00. To `Cc1cc(Nc2cnn[nH]2)ccc1Cl` [Compound I-38] belongs 6.00 to 7.00; to `CCc1cc(Nc2cnn[nH]2)ccc1Cl` [Compound I-7], 6.00 to 7.00; to `Clc1cc(Cl)cc(Nc2cn[nH]n2)c1` [Compound I-16], 6.00 to 7.00. Molecule `Clc1ccc(Nc2cnn[nH]2)cn1` [Compound I-22, 6-chloro-N-(2H-1,2,3-triazol-4-yl)pyridin-3-amine] showed a pIC50 of 4.40 to 6.00. The molecule `CN1CCN(CCOc2cc(Cl)ccc2Nc2cnn[nH]2)CC1` [Compound I-48] had a pIC50 of 6.00 to 7.00. The same measure for `Brc1ccc(Nc2c[nH]nn2)cc1` [Compound I-3]: over 7.00.
